Measured values as given in a melting point compilation (Tetko et al.; mined from patent text by program, amines drawn as free bases though some values may be those of a salt).

melting point [°C]	SMILES
113 to 114	CCC(NC(C)=O)c1ccc(CN2CCN(c3ccc(F)cc3)CC2)cc1 (configuration not stated)
218 to 219	OCc1cccc2c1[nH]c1c3cc(Br)ccc3oc21
196 to 200	O=S1(=O)Cc2cc(Cl)c(Cl)cc2C(c2ccc(F)cc2)=NN1
164 to 168	CC(=O)Nc1nc(N(C(C)=O)C(C)=O)c(CCC=O)c(=O)[nH]1
198 to 200	CCC(=O)OCC1OC(n2cnc3c(=O)[nH]c(N)nc32)C(F)C1OC(=O)CC (configuration not stated)
137	Nc1ccc(NC(=O)[C@H](Cc2ccccc2)NC(=O)c2ccc(-c3nnn[nH]3)cc2)cc1
224 to 225	CNc1nc(-c2ccccc2)c(-c2nc3ccccc3c(=O)n2-c2ccccc2)s1
111 to 114	OC[C@H]1C[C@@H](n2cnc3c(N[C@H]4CCN(c5ccc(C(F)(F)F)cc5)C4)ncnc32)[C@H](O)[C@@H]1O
113	CCCCOc1nc(-c2ccco2)c2ncn(Cc3ccc(OC)cc3)c2n1
252 to 255	Cc1ccc(-c2nc(O)c(-c3ccccc3)s2)cc1
158 to 159	Cc1ccc(-c2c(CN3C(=O)c4ccccc4C3=O)n(CC(C)C)c(=O)c3ccc(OCc4ccccc4)cc23)cc1
80 to 81	CCCCN(CCCC)C(=O)Nc1cccc(Br)c1
222	Cc1sc2cc(C(=O)NCC3(SCc4ccccc4)CCNCC3)[nH]c2c1N(C)S(=O)(=O)c1cccs1
191 to 193	COC(=O)c1cc2cnc(SC)nc2n(Cc2ccc(OC)c(Cl)c2)c1=O
128 to 130	CN(C/C=C\COCC(=O)O)c1cnc(-c2ccccc2)c(-c2ccccc2)n1
166 to 168	COc1ccc(S(N)(=O)=O)c(-c2cccc3c2Nc2ccc(F)cc2S3)c1
83 to 85	COc1ccc(COC(=O)[C@@H]2C[C@@H](O)CN2C(=O)OCc2ccc([N+](=O)[O-])cc2)cc1
79 to 82	CS(=O)(=O)c1ccc(C(CC2CCCC2)C(=O)Nc2cnc(CC#N)cn2)cc1Cl (configuration not stated)
256 to 258	O=CCNc1[nH]c(-c2ccc(F)cc2)nc1-c1ccccc1
93 to 94	CCOC(=O)c1ccc(NCCCOc2cccc3ccccc23)cc1
121 to 123	CC(C)(C)C(=O)c1ccc(C(=O)NC(=O)c2ccccc2)cc1

melting point [°C]	SMILES
135 to 137	C=CCc1cc(-c2nc(C)no2)ccc1O
204 to 206	N#Cc1ccc(NCC(=O)N2CCC(Cc3ccc(F)cc3)CC2)cc1
200 to 202	CNc1nc(-c2cccc(-c3cncc(-c4ccccc4)c3)c2)c2cc(OC)c(OC)cc2n1
222 to 224	Cc1cc(-c2nnc3c4ccccc4c(OCc4ccncn4)nn23)no1
163 to 164	COc1ccc(-c2nc(S(=O)(=O)C(F)(F)C(F)F)[nH]c2-c2cccs2)cc1
68 to 70	N#Cc1nccnc1Oc1cccc(C(F)(F)F)c1
93.5 to 95.5	CCOCCOc1nc2c(c3ccccc13)c1cc(Cl)ccc1n2C
115 to 116	Cc1oc(-c2ccccc2)nc1CCOc1cc(CO)on1
268 to 270	Cn1cc(C(=O)O)c(=O)c2cc3cc(F)c(N4CCNC(c5cccs5)C4)cc3nc21 (racemic)
220	CS(=O)(=O)Nc1cc2occ(C#N)c(=O)c2cc1Oc1ccccc1
155 to 156	C[C@@H]1Cc2cc([N+](=O)[O-])sc2[C@H](C)N1CCNC(=O)c1ccc([N+](=O)[O-])cc1 (relative stereo)
188 to 190	CCc1c(S(=O)(=O)c2ccc(O)cc2)cnn1C
116 to 123	COC(=O)c1ccc2c(c1)Sc1ccccc1CC2Br (configuration not stated)
> 200	C=CC1(S(=O)(=O)CCS(=O)(=O)CC(O)CS(=O)(=O)CCCl)C=CC=CC1 (configuration not stated)
60 to 62	COC1=C(OC)C(=O)C(CN2CCOCC2)=C(C)C1=O
100 to 106	COc1ccc(-c2cc(OCC3CO3)c3ccccc3n2)cc1 (racemic)
206 to 208	CCOC(=O)C1CCc2c(oc3ccc(C(N)=O)cc23)C1 (configuration not stated)
194 to 195	CC(=O)N1CCN=C1Nc1cc(C)nn1-c1cccc2ccccc12
88 to 90	CCCCCCC(=O)c1c(O)oc(=O)c(C(=O)CCCCCC)c1O
83	CCc1c(C)c(=O)oc2cc(-c3ccc(C(C)C)cc3)cc(OC)c12
154 to 156	CS(=O)(=O)c1ccc(-c2cnn(CC(F)(F)F)c(=O)c2Nc2ccccc2)cc1

Further lines, the compound ahead of its results:

SMILES	melting point [°C]
CCC1CC(=O)CC2CCC3C4CCC(OC(C)=O)C4(C)CCC3C12C (configuration not stated)	159
CC(C)(C)c1ccc(-c2ccc(C(=O)N=[N+]=[N-])s2)cc1	162 to 164
CCCCc1nc2c(N)nc3cc(-c4cccnc4)ccc3c2n1CCNC(=O)NC(C)C	240 to 241
CC(C)(C)C(=O)SCC1CCCCCCCSC[C@@H](C(=O)OCc2ccccc2)NC1=O (some centres not stated)	135 to 137
COc1cc(C=CC(=O)Nc2c(-c3ccccc3)c3cc(C)cc(C)c3oc2=O)cc(OC)c1OC(C)=O	245 to 248
CNC(=O)c1cccc(NC(=O)Cc2cc(OC)c(OC)c(OC)c2)c1	81 to 82
N#Cc1cc(C(=O)NCc2cccc([N+](=O)[O-])c2)c(OCC(=O)O)cc1F	179 to 180
CCc1nn(CCNC(=O)COC)c(CC)c1Oc1cc(Cl)cc(Cl)c1	75 to 76
CCC(CC)c1ccc(Cl)c2nc3n(c12)CCCCN3c1ncc(C(N)=O)cc1C	234 to 235
CC(C)COC(=O)CC1CC(c2ccc(C#N)cc2)=NO1 (single isomer, unassigned; (-))	98 to 100
Cc1sc(-c2ccncc2)nc1CCOc1ccc(C[C@H](Nc2ccccc2C(=O)c2ccccc2)C(=O)O)cc1	155 to 158
CC(=O)CC(=S)N1N=C(c2ccc([N+](=O)[O-])cc2)c2cc3c(cc2CC1C)OCO3 (configuration not stated)	178 to 185
CCCCc1nc(Cl)c(C(=O)OCC)n1Cc1ccc2oc(-c3ccccc3NS(=O)(=O)C(F)(F)F)c(Br)c2c1	158 to 159
CS(=O)(=O)c1cccc(NC(=O)c2cnn3c(C(F)F)cc(-c4ccc(C(F)(F)F)cc4)nc23)c1	251
COc1cc(Nc2c(C#N)cnc3cc(C#Cc4ccccn4)ccc23)c(Cl)cc1Cl	238 to 240
Nc1ccc(Cn2cc(C(F)(F)F)ccc2=O)cc1	97 to 98
CCn1cc(C(=O)O)c(=O)c2cc(C=NOCC(=O)O)sc21	249 to 250
COCc1ccc(C(=O)N[C@H](Cc2ccc(C(F)(F)F)cc2)[C@@H](O)c2ccc(F)cc2)c2ccccc12 (racemic)	170 to 171
CNC1(C(=O)O)CCN(OC)CC1	> 250
CC1(C)CC(=O)c2cc3c(cc2O1)OCCO3	118 to 119
Cc1cccc2c1Cc1ccccc1OC(C(=O)O)O2 (configuration not stated)	61
CCOC(=O)c1c2n(c3cc(Cl)c(Cl)cc3c1=O)CCS2	255 to 257
COc1ccc2cc(C(O)=CC(C)=O)cc(F)c2c1	107 to 108
O=C(Nc1ccc2c(c1)CN(C(=O)OCc1ccccc1)CC2)OCc1ccccc1	113 to 115
Cn1cc(CS(C)=O)c(=O)c2ccccc21 (configuration not stated)	93 to 95
O=C(Cc1cccc2ccccc12)NC1CCC2(O)C3Cc4ccc(O)c5c4C2(CCN3CC2CC2)C1O5 (configuration not stated)	213 to 215
Cc1cc(C(=O)N2Cc3ccc(C(=O)NCc4cccnc4)n3Cc3ccccc32)ccc1I	176 to 177
Cc1ccccc1C(=O)Nc1ccc(C(=O)N2CCCC(O)(CO)c3ccccc32)cc1 (configuration not stated)	136 to 140

SMILES	melting point [°C]
COC(=O)COC1c2ccccc2COc2ccc(OCc3ccc4cc(Cl)ccc4n3)cc21 (configuration not stated)	144 to 147
CCN(C)c1ccc(Cn2nnc(-c3ccc(OC(=O)C(C)(C)C)cc3)n2)cc1	122 to 125
Cc1c(C)c(O)c(CN(C)C)c(C)c1O	103 to 108
Cc1cc(Cl)c(C)cc1O	74 to 75
COc1ccc(OC)c(COc2ccc(NC=O)c(C(N)=O)c2)c1	135 to 138
CCN(CC)C(=O)c1cc([N+](=O)[O-])cnc1CBr	62 to 64
O=C1c2cc([N+](=O)[O-])ccc2CC2CCCCN12 (configuration not stated)	137 to 142
COC(=O)C1C(NC(C)=O)CC(=O)OC1C (configuration not stated)	135 to 136
O=C1Nc2ccccc2SC1CO (configuration not stated)	156 to 157
Clc1ccc(CN2C(=NCCCn3ccnc3)c3cccc4cccc2c34)cc1	90 to 91
CCOC(=O)c1cn(-c2cccc(OC3CCCC3)c2)cn1	66 to 67
c1cc2c3c(c1)nc(N1CCC(c4c[nH]cn4)CC1)n3CCC2	250 to 255
CC(=O)c1ccc2ccc3c(c2c1)C(CCl)CN3C(=O)OC(C)(C)C (configuration not stated)	98 to 100
Cc1c(O)cc2c(c1C)CCC2(C)C	117 to 118
Cn1c(=O)c(-c2c(Cl)cccc2Cl)cc2cnc(NC3CCCCC3)nc21	242 to 244
Cc1nc[nH]c1CSCCNC(=N)NC#N	125 to 127
COc1cc(OC)nc(N(C(=S)Oc2ccccc2)C(=S)Oc2ccccc2)n1	127 to 128
CNC(=C[N+](=O)[O-])NCCCCc1ccccn1	90 to 91
CCCCC(=O)c1c(-c2ccc3c(C)c(OCC(=O)O)ccc3c2)oc2ccccc12	153 to 155
CC1(C)CCN(c2cccc(-c3cnc4[nH]cc(C(=O)C(C)(C)C)c4n3)c2)C1	233 to 235
CC(C)n1nc(C(=CN(C)C)C(=O)c2ccc(F)cc2)ccc1=O	161 to 162
C[C@@H](Cn1ncc2ccc(OCCO)c(Br)c21)NC(=O)OCc1ccccc1	97 to 99
CCOC(=O)c1ncn(-c2nncs2)c1S(N)(=O)=O	168 to 171
O=c1ccc2cc(C(O)(C(F)(F)F)C(F)(F)F)cc3c2n1CCC3	295 to 296
COc1nc(=O)[nH]cc1C	196 to 199
O=[N+]([O-])c1cc2nc(O)c(O)nc2c2scnc12	> 360
CC(C)n1nc(-c2c(-c3ccccc3)nc(N)nc2N(C)Cc2ccccc2)ccc1=O	167 to 168
